According to patent publication EP0273199A2, “Uses of 3,4-diphenyl piperidine derivatives or medicines, 3,4-diphenyl piperidine derivatives, and process for their preparation” (LABORATOIRES HOECHST S.A., priority 1986, dated 1988):
Like-named read-outs stand apart in the source and are kept apart here.

Key:
Toxizität des Yohimbins = assay: Potentiation of yohimbine toxicity; assay type: in vivo, Maus; conditions: ip
Protocol: Wirkung auf die Toxizität des Yohimbins
Zur Zeit 0 erhalten die Mäuse entweder destilliertes Wasser oder verschiedene zu untersuchende Verbindungen i.p. 30 Minuten danach verabreicht man ihnen subkutan eine infratoxische Dosis von 25 mg/kg Yohimbinchlorhydrat.
Die Mortalität wird jede Stunde über einen Zeitraum von 4 Stunden verfolgt und dann nach 24 Stunden notiert.
Die eine antidepressive Aktivität besitzenden Produkte verursachen eine Potenzierung der Toxizität des Yohimbins.

Apomorphin 16 mg/kg = assay: Antiapomorphine activity (apomorphine 16 mg/kg s.c., hypothermia); assay type: in vivo, Maus; conditions: ip
Protocol: Zur Zeit 0 nach Ausgleich der Reaktaltemperaturen werden die Mäuse (6 pro Gruppe) in deren Beobachtung gestattende Einzelkäfige (11 x 3,5 x 4 cm) eingeetzt. 30 Minuten nach i.p. bzw. p.o. Verabreichung der Testsubstanz erhalten sie Apomorphin subkutan in einer Dosis von 16 mg/kg. Die Rektaltemperatur wird 30 Minuten nach dem Apomorphin gemessen. Die Kontrolltiere erhalten destilliertes Wasser statt der zu untersuchenden Verbindungen. Die bei diesen Kontrolltieren, die 16 mg/kg Apomorphin erhalten haben, beobachtete Hypothermie liegt im Durchschnitt bei 33°C. Für jede Verbindungsdosis berechnet man die prozentuale Hemmung der Hypothermie.

Maus [1] = assay: Behavioural despair test (Porsolt forced swimming); assay type: in vivo; conditions: mouse; for Dauer der Unbeweglichkeit: 30 min before test
Excerpt: Test auf verzweifeltes Verhalten, wie von Porsolt u.a. (Arch. Int, Pharmacodyn. Ther. 229, 327 - 336, 1977) beschrieben.
Die Verbindungen werden intraperetoneal 30 Minuten vor dem Test verabreicht, und die Tiere werden vor dem erzwungenen Schwimmtest isoliert gehalten. Man bewertet die Dauer der Unbeweglichkeitsperioden in Sekunden ausgedrückt, die von der 2. bis zur 6. Minute nach dem Einsetzen des Tieres in Wasser gezählt werden.

[2] = tested on: durch Reserpin induzierten Hypothermie; assay: Antireserpine activity (reserpine-induced hypothermia); assay type: in vivo, Maus; conditions: ip
Protocol: Zur Zeit 0 erhalten die Mäuse intraperitoneal Reserpin (2,5 mg/kg).
4 Stunden danach, wenn die Hypothermie genügend stark erscheint (30 bis 33°C), verabreicht man die verschiedenen zu untersuchenden Verbindungen i.p. oder p.o. Alle 30 Minuten über einen Zeitraum von 2 Stunden mißt man die Rektaltemperatur mit einer auf konstante Tiefe eingeführten, ein Thermoelement tragenden Sonde. Die Rektaltemperatur der mit verschiedenen erfindungsgemäßen Verbindungen behandelten Tiere wird mit der Temperatur einer Kontrollgruppe verglichen, die destilliertes Wasser auf die gleiche Weise wie die untersuchten Verbindungen erhält.
Die Akinesie (fehlende Bewegungen) und Ptose (Öffnungsgrad des Augenlids von 0 bis 4 nach Rubin u.a 1957) werden ebenfalls alle 30 Minuten über einen Zeitraum von 2 Stunden bewertet.
Die eine antidepressive Aktivität besitzenden Produkte wirken der durch Reserpin induzierten Hypothermie entgegen. Für jede Dosis der verabreichten Verbindung berechnet man die prozentuale Hemmung der Hypothermie.

Motoraktivität = assay: Actimetry (motor activity, photocell actimeter); assay type: in vivo, Maus; conditions: for Motilität: i.p., direction of change; for minimal effective dose: ip, read-out: Erste wirksame Dosis Motilität
Excerpt: Die Motoraktivität wird mittels Photozellenaktimetern bestimmt (Boissier und Simon, Arch. Int. Pharmacodyn. 1965, 158, 212-221).
Die Mäuse (10 oder ein Vielfaches von 10 pro Gruppe) werden unmittelbar nach i.p. Verabreichung der zu untersuchenden Verbindungen in das Aktimeter eingesetzt. Die Motoraktivität wird danach bis zur 60. Minute gemessen. De Zähler werden nach 30 Minuten abgelesen und dann auf 0 zurückgestellt und im Verlauf von 30 Minuten alle 10 Minuten abgelesen.
Die Beweglichkeit der mit den verschiedenen Verbindungen behandelten Tiere wird mit derjenigen einer destilliertes Wasser erhaltenden Kontrollgruppe verglichen.
Die eine psychostimulierende Aktivität besitzenden Produkte verursachen eine Zunahme der Beweglichkeit.

Maus [3] = assay: Tail suspension test; assay type: in vivo; conditions: for minimal effective dose: ip, read-out: Erste wirksame Dosis T.S.T. Maus
Excerpt: Schwanzaufhängungstest an der Maus wie von Stéru u.a. beschrieben (Psychopharmacology 85, 367-370, 1985).
Die Substanzen werden intraperitoneal 30 Minuten vor dem Test verabreicht und die Tiese isoliert (10 Mäuse pro Dosis).
Man bewertet die Dauer der Unbeweglichkeit, ausgedrückt in Sekunden über die 6 Minuten des Tests. Man untersucht auf eine Verkürzung dieser Unbeweglichkeitszeit.

[4] = tested on: Apomorphin 1 mg.kg^-1 s.c.; assay: Apomorphine 1 mg/kg s.c. antagonism (no method given); assay type: in vivo; conditions: ip, Tabelle Ib; read-out: Erste wirksame Dosis Apomorphin 1 mg.kg^-1 s.c.
[5] = tested on: durch Oxotremorin induzierten Hypothermie; assay: Antioxotremorine activity (oxotremorine-induced hypothermia); assay type: in vivo, Maus; conditions: ip, read-out: Erste wirksame Dosis Oxotremorin
Protocol: Nach Ausgleich der Rektaltemperaturen erhalten Mäuse (6 pro Gruppe) entweder destillietes Wasser oder die verschiedenen zu untersuchenden Verbindungen i.p.
30 Minuten danach verabreicht man intraperitoneal Oxotremorin in einer Dosis von 0,5 mg/kg.
Die Mäuse werden dan beobachtet: Tremor wird je nach der Intensität von 0 bis 3 bewertet, und die Akinesie wird alle 10 Minuten über einen Zeitraum von 30 Minuten auf Vorliegen oder Fehlen bestimmt.
Außerdem beobachtet man 2 Stunden lang das Erscheinen peripherer Symptome (Tränen, Darmentleerung). Die Rektaltemperatur wird alle 30 Minuten über eine Zeitraum von 2 Stunden nach der Verabreichung des Oxotremorins gemessen.
Die eine antidepressive Aktivität besitzenden Produkte wirken der durch Oxotremorin induzierten Hypothermie entgegen.
Für jede Dosis der Verbindung berechnet man die prozentuale Hemmung der Hypothermie.

[6] = Tabelle Ib, read-out: Erste wirksame Dosis Yohimbin
[7] = Tabelle Ib, read-out: Erste wirksame Dosis Apomorphin 16 mg.kg^-1 s.c.
[8] = Tabelle Ib, read-out: Erste wirksame Dosis Reserpin

CN(C)CCCN1c2ccccc2CCc2ccccc21 [IMIPRAMIN]
minimal effective dose (Toxizität des Yohimbins; [6]): 16 mg/kg
minimal effective dose (Apomorphin 16 mg/kg; [7]): 4 mg/kg
% Antagonismus (Maus [1]; 16 mg/kg i.p.): 37%
Dauer der Unbeweglichkeit (Maus [1]; 16 mg/kg i.p.): 112 ± 23 p < 0,05 Sekunden
minimal effective dose [2, 8]: 2 mg/kg
Motilität (Motoraktivität; Tabelle Ib): ↘
minimal effective dose (Motoraktivität; Tabelle Ib): 128 mg/kg
minimal effective dose (Maus [3]; Tabelle Ib): 1 to 4 mg/kg
% Antagonismus (Maus [3]; mouse, 1 mg/kg i.p.): 31%
Dauer der Unbeweglichkeit (Maus [3]; mouse, 1 mg/kg i.p.): 70 ± 17 Sekunden
% Antagonismus (Maus [3]; mouse, 2 mg/kg i.p.): 42%
Dauer der Unbeweglichkeit (Maus [3]; mouse, 2 mg/kg i.p.): 59 ± 8 p < 0,01 Sekunden
% Antagonismus (Maus [3]; mouse, 4 mg/kg i.p.): 48%
Dauer der Unbeweglichkeit (Maus [3]; mouse, 4 mg/kg i.p.): 53 ± 11 p < 0,01 Sekunden
% Antagonismus (Maus [3]; mouse, 8 mg/kg i.p.): 58%
Dauer der Unbeweglichkeit (Maus [3]; mouse, 8 mg/kg i.p.): 48 ± 10 p < 0,01 Sekunden
% Antagonismus (Maus [3]; mouse, 16 mg/kg i.p.): 73%
Dauer der Unbeweglichkeit (Maus [3]; mouse, 16 mg/kg i.p.): 28 ± 7 p < 0,001 Sekunden
minimal effective dose [4]: 8 mg/kg

CN1CCN2c3ccccc3Cc3ccccc3C2C1 (stereo not drawn) [MIANSERIN, reference compound]
minimal effective dose (Apomorphin 16 mg/kg; [7]): 64 mg/kg
minimal effective dose [2, 8]: > 32 mg/kg
Motilität (Motoraktivität; Tabelle Ib): ↘
minimal effective dose (Motoraktivität; Tabelle Ib): 32 mg/kg
minimal effective dose [4]: 64 mg/kg
minimal effective dose ([5]; Tabelle Ib): 32 mg/kg

CN1Cc2c(N)cccc2C(c2ccccc2)C1 (stereo not drawn) [NOMIFENSIN]
minimal effective dose (Toxizität des Yohimbins; [6]): 4 mg/kg
minimal effective dose (Apomorphin 16 mg/kg; [7]): 2 mg/kg
% Antagonismus (Maus [1]; 4 mg/kg i.p.): 39%
Dauer der Unbeweglichkeit (Maus [1]; 4 mg/kg i.p.): 120 ± 23 p < 0,001 Sekunden
minimal effective dose [2, 8]: 8 mg/kg
Motilität (Motoraktivität; Tabelle Ib): ↗
minimal effective dose (Motoraktivität; Tabelle Ib): 4 mg/kg
minimal effective dose (Maus [3]; Tabelle Ib): 0.25 mg/kg
% Antagonismus (Maus [3]; mouse, 0,06 mg/kg i.p.): 35%
Dauer der Unbeweglichkeit (Maus [3]; mouse, 0,06 mg/kg i.p.): 59 ± 9 Sekunden
% Antagonismus (Maus [3]; mouse, 0,25 mg/kg i.p.): 55%
Dauer der Unbeweglichkeit (Maus [3]; mouse, 0,25 mg/kg i.p.): 41 ± 6 p < 0,01 Sekunden
% Antagonismus (Maus [3]; mouse, 1 mg/kg i.p.): 66%
Dauer der Unbeweglichkeit (Maus [3]; mouse, 1 mg/kg i.p.): 31 ± 6 p < 0,01 Sekunden
% Antagonismus (Maus [3]; mouse, 4 mg/kg i.p.): 80%
Dauer der Unbeweglichkeit (Maus [3]; mouse, 4 mg/kg i.p.): 18 ± 5 p < 0,001 Sekunden
minimal effective dose [4]: 2 mg/kg
minimal effective dose [5]: 16 mg/kg

CCOc1ccccc1OCC1CNCCO1 (stereo not drawn) [VILOXAZIN, reference compound]
minimal effective dose (Toxizität des Yohimbins; read-out: Erste wirksame Dosis Yohimbin, i.p., Tabelle Ib): 8 mg/kg
minimal effective dose (Apomorphin 16 mg/kg; read-out: Erste wirksame Dosis Apomorphin 16 mg.kg^-1 s.c., i.p., Tabelle Ib): 8 mg/kg
minimal effective dose ([2]; read-out: Erste wirksame Dosis Reserpin, i.p., Tabelle Ib): 4 mg/kg
Motilität (Motoraktivität; Tabelle Ib): ↘
minimal effective dose (Motoraktivität): 16 mg/kg
minimal effective dose (Maus [3]): 8 mg/kg
minimal effective dose [4]: > 32 mg/kg
minimal effective dose [5]: 4 mg/kg
